Key:
[1] = single 1,000 mg dose, 2 weeks post-administration, non-infected patients undergoing elective orthopedic surgery; cited from earlier work
Description: Assessment of optimal antibiotic exposure at the site of the infection is challenging, especially for deep-seated infections, such as bone and joint, and often unbound plasma exposure is used as a worst-case scenario surrogate for target site exposure assuming that only the free (unbound) concentration can distribute to peripheral tissues ([37]). However, drug PK in the peripheral tissues depends not only on protein binding but also on other characteristics, such as drug’s molecular weight and physiochemistry, varying broadly across antibiotic classes ([38]). For dalbavancin, Dunne et al. perf ...

[2] = Population pharmacokinetic analysis (Monolix); format: in vivo, human
Experimental: The non-linear mixed-effect modeling software Monolix 2024R1 (Lixoft SAS, a Simulations Plus company) implementing the stochastic approximation expectation maximization algorithm was used for model development ([18]).
One- and multicompartment models with first-order elimination were tested. All individual parameters were assumed to be log-normally distributed. Inter-individual variability (IIV) was described using an exponential model. To describe residual variability, several error models (constant, proportional, or combined error model) were tested. The most appropriate structural model was selected based on the following criteria: Akaike information criterion, corrected Bayesian information criterion, usual goodness-of-fit plots, and relative standard errors. […] Model internal validation was based on goodness-of-fit plots, including observations versus individual (IPRED) and population predictions (PRED) and plots of normalized prediction distribution error (NPDE) versus PRED and time. A prediction-corrected visual predictive check (pc-VPC) was performed using 500 simulations with the final model ([21]), and non-parametric bootstrapping (n = 1,000) was used for assessing stability and robustness of the final model using Monolix 2024R1.

[3] = clinical; details: human, in vivo, iv, 1500 mg
Experimental: Blood samples obtained during the follow-up visits were processed immediately after extraction, centrifuged at 3,000 g for 10 min and frozen at −80°C until bioanalysis.

[4] = cited from earlier work
Experimental: Our observations were best described by a one-compartment model, which is in accordance with the sparse data gathered from routine clinical practice ([40]). […] A potential explanation is that the studies that report higher CL were performed ...

[5] = tested on: chronic prosthetic joint infections caused by Gram-positive bacteria; assay: Microbiological and clinical cure after two-stage exchange with a single 1,500 mg dose; format: in vivo, human
[6] = Adverse events attributable to dalbavancin during follow-up; format: in vivo, human; details: single 1,500 mg i.v. dose, over administration and during follow-up, including changes in renal function; 20 patients
[7] = non-parametric bootstrap n = 1,000
[8] = one-compartment model, total concentrations, 18 patients with CPJI, single 1,500 mg i.v.

**Q.** Which “Measured amount in homogenized cortical bone” value [1] does the source give for `CN[C@H]1C(=O)N[C@@H]2Cc3ccc(cc3)Oc3cc4cc(c3O[C@@H]3O[C@H](C(=O)O)[C@@H](O)[C@H](O)[C@H]3NC(=O)CCCCCCCCC(C)C)Oc3ccc(cc3Cl)[C@@H](O)[C@@H]3NC(=O)[C@H](NC(=O)[C@@H]4NC(=O)[C@@H](NC2=O)c2cc(cc(O)c2Cl)Oc2cc1ccc2O)c1ccc(O)c(c1)-c1c(O[C@H]2O[C@H](CO)[C@@H](O)[C@H](O)[C@@H]2O)cc(O)cc1[C@@H](C(=O)NCCCN(C)C)NC3=O` [dalbavancin] here?
**A.** 4.1 µg/g

**Q.** What about the “CL, clearance, bootstrap median (95% CI)” value [2, 7] of the same compound?
**A.** 0.037 (0.031–0.043) L/h

**Q.** What about the “V, volume of distribution, bootstrap median (95% CI)” value [2, 7] of the same compound?
**A.** 18.0 (16.0–20.3) L

**Q.** And the “CL, clearance, estimate (% RSE)” value [2, 8]?
**A.** 0.036 (8.2 %) [12.6%] L/h

**Q.** And the “V, volume of distribution, estimate (% RSE)” value [2, 8]?
**A.** 17.9 (6.2 %) [18.1%] L

**Q.** What about the level at 336 h [3] of the same compound?
**A.** 58500 ng/mL

**Q.** What about the level at 504 h [3] of the same compound?
**A.** 29700 ng/mL

**Q.** What about the level at 672 h [3] of the same compound?
**A.** 13300 ng/mL

**Q.** What about the “CL reported in healthy volunteers and patients with acute infections” value [4] of the same compound?
**A.** 0.050 L/h

**Q.** And the “Clinical failures or relapses” value ([5]; median follow-up of 693 days (IQI 630–824) after the second-stage procedure)?
**A.** no clinical failures or relapses

**Q.** And the Second-stage surgery isolates ([5]; patient 2, hip, first-stage S. lugdunensis, after Daptomycin (4)-Cefazolin (7) days)?
**A.** No growth

**Q.** And the Second-stage surgery isolates ([5]; patient 3, hip, first-stage E. faecalis, after Daptomycin (4)-Ampicillin (7) days)?
**A.** No growth

**Q.** What about the Second-stage surgery isolates ([5]; patient 4, hip, first-stage S. hominis, after Vancomycin (6)-Linezolid (9) days) of the same compound?
**A.** No growth

**Q.** And the Second-stage surgery isolates ([5]; patient 5, hip, first-stage S. epidermidis, after Daptomycin (10) days)?
**A.** No growth

**Q.** And the Second-stage surgery isolates ([5]; patient 6, hip, first-stage S. epidermidis, after Vancomycin (13)-Daptomycin (3) days)?
**A.** No growth

**Q.** What about the Second-stage surgery isolates ([5]; patient 7, shoulder, first-stage S. epidermidis, after Vancomycin (3)-Daptomycin (5) days) of the same compound?
**A.** No growth

**Q.** What about the Second-stage surgery isolates ([5]; patient 8, knee, first-stage C. acnes, after Vancomycin (8) days) of the same compound?
**A.** No growth

**Q.** What about the Second-stage surgery isolates ([5]; patient 9, hip, first-stage S. epidermidis, after Vancomycin (20) days) of the same compound?
**A.** No growth

**Q.** And the Second-stage surgery isolates ([5]; patient 10, hip, first-stage S. epidermidis, C. acnes, after Vancomycin (3)-Daptomycin (9) days)?
**A.** No growth

**Q.** And the Second-stage surgery isolates ([5]; patient 11, knee, first-stage S. epidermidis, after Vancomycin (7) days)?
**A.** No growth

**Q.** What about the Second-stage surgery isolates ([5]; patient 12, knee, first-stage C. acnes, after Vancomycin (3)-Linezolid (5) days) of the same compound?
**A.** No growth

**Q.** What about the Second-stage surgery isolates ([5]; patient 13, knee, first-stage S. epidermidis, after Vancomycin (10) days) of the same compound?
**A.** No growth

**Q.** What about the Second-stage surgery isolates ([5]; patient 14, knee, first-stage S. epidermidis, after Vancomycin (7)-Linezolid (5) days) of the same compound?
**A.** No growth

**Q.** And the Second-stage surgery isolates ([5]; patient 15, hip, first-stage S. capitis, C. acnes, after Vancomycin (7)-Daptomycin (10) days)?
**A.** No growth

**Q.** And the Second-stage surgery isolates ([5]; patient 16, knee, first-stage S. capitis, S. pettenkoferi, after Vancomycin (5)-Daptomycin (7) days)?
**A.** No growth

**Q.** And the Second-stage surgery isolates ([5]; patient 17, shoulder, first-stage C. acnes, after Vancomycin (10) days)?
**A.** S. epidermidis S. hominis

**Q.** What about the Second-stage surgery isolates ([5]; patient 18, hip, first-stage S. epidermidis, after Vancomycin (10)-Linezolid (13) days) of the same compound?
**A.** No growth

**Q.** And the Second-stage surgery isolates ([5]; patient 19, hip, first-stage S. epidermidis, C. acnes, after Vancomycin (4)-Tedizolid (14) days)?
**A.** No growth

**Q.** What about the Second-stage surgery isolates ([5]; patient 20, hip, first-stage S. epidermidis, after Daptomycin (12) days) of the same compound?
**A.** No growth

**Q.** And the Microbiological cure rate ([5]; single 1,500 mg i.v. dose after median 11.5 days systemic antibiotics, vancomycin-gentamicin spacer, negative intraoperative cultures at second-stage surgery)?
**A.** 94.7%

**Q.** What about the Adverse events [6] of the same compound?
**A.** No adverse events were reported
